Measured values from paper PMC8387526, “Small peptide-based GLP-1R ligands: an approach to reduce the kidney uptake of radiolabeled GLP-1R-targeting agents?” (EJNMMI Radiopharmacy and Chemistry, 2021).
Square brackets hold non-standard residues; d marks the D form. Peptide text beside a SMILES is read from it. Bip(2'-Et-4'-OMe) = CCc1cc(OC)ccc1-c1ccc(C[C@H](N)C(=O)O)cc1; αMePhe(2-F) = C[C@](N)(Cc1ccccc1F)C(=O)O; hPhe = N[C@@H](CCc1ccccc1)C(=O)O; Aib = CC(C)(N)C(=O)O

Legend:
human GLP-1 receptor [1] = molecular target: T1, human GLP-1 receptor (Homo sapiens, UniProt P43220); set-up: Dr. Timothy Kieffer (University of British Columbia); method as in Mapelli et al., 2009; Haque et al., 2010a; settings: CHO cells stably overexpressing the human GLP-1 receptor; ref Mapelli et al., 2009; Haque et al., 2010a; read-out: EC50 (cAMP production); cited from earlier work
T1 sequence (P43220 24-463): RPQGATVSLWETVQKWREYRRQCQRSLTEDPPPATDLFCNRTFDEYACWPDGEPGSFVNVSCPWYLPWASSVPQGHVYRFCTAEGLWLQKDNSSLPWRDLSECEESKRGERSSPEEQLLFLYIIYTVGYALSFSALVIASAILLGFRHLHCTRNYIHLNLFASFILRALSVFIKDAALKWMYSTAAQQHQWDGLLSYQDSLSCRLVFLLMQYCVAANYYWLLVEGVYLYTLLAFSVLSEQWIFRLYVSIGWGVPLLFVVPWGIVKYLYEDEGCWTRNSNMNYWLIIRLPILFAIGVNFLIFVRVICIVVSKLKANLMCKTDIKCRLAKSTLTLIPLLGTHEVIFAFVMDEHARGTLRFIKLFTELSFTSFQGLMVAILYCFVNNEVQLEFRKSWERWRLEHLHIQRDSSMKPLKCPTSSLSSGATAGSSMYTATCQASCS

human GLP-1 receptor [2] = molecular target: T1, human GLP-1 receptor; experiment: Competitive binding (IC50) on HEK293-hGLP-1R cells with radioligand [Nle^14, [^125I]Tyr(3-I)^40]exendin-4; set-up: Dr. Timothy Kieffer (University of British Columbia); host or cells: HEK293; settings: w/ BSA (1% BSA); HEK293-hGLP-1R cells, 4 °C, 2 h, 0.41 nM radioligand; read-out: IC50 ± SD
Protocol: Dr. Timothy Kieffer (University of British Columbia, Vancouver, Canada). Cells were cultivated in high glucose DMEM (25.0 mM D-glucose, 3.97 mM GlutaMAX; REF-number: 61965–026; Fisher Scientific GmbH, Schwerte, Germany) supplemented with 10% fetal bovine serum and 1 mM sodium pyruvate. Medium for stably transfected HEK293-hGLP-1R cells was constantly supplemented with 1 mg/mL Geneticin (G-418 Biochrom, Merck KgaA, Darmstadt, Germany) as selection antibiotic. The cell line was kept at 37 °C in a humidified 5% CO2 atmosphere. One day (24 ± 2 h) prior to all in vitro experiments, the cultivated HEK293-h-GLP-1R cells were harvested using a mixture of trypsin/ethylenediaminetetraacetic acid (0.05%/0.02%) in phosphate-buffered saline (PBS) (Gibco, Germany) and centrifuged at 1300 rpm (ca. 190×g) for 3 min at room temperature (Heraeus Megafuge 16, Thermo Fisher, Germany). After centrifugation, the supernatant was disposed and the cell pellet was resuspended in culture medium. Cells were counted with a Neubauer hemocytometer (Paul Marienfeld GmbH & Co. KG, Lauda-Königshofen, Germany) and seeded in 24-well plates. IC50 values were determined by transferring 1.50 × 10^5 cells/mL per well into 24-well plates.
Detailed information on affinity experiments is provided in the SI. In brief, competitive binding studies were determined on HEK293-hGLP-1R cells (1.50 × 10^5 cells in 1 mL/well) after incubation at 4 °C for 2 hours, using [^125I]Tyr(3-I)^40–3 (0.41 nM/well) as reference radioligand (n = 3).
Dr. Timothy J. Kieffer (University of British Columbia, Vancouver, Canada). Cells were cultivated in high glucose DMEM (25.0 mM D-glucose, 3.97 mM GlutaMAX; REF-number: 61965-026; Fisher Scientific GmbH, Schwerte, Germany) supplemented with 10% fetal bovine serum and 1 mM sodium pyruvate. Medium for stably transfected HEK293-hGLP-1R cells was constantly supplemented with 1 mg/mL Geneticin (G-418 Biochrom, Merck KgaA, Darmstadt, Germany) as selection antibiotic. The cell line was kept at 37 °C in a humidified 5% CO2 atmosphere. One day (24 ± 2 h) prior to all in vitro experiments, the cultivated cells were harvested using a mixture of trypsin/ethylenediaminetetraacetic acid (0.05%/0.02%) in phosphate-buffered saline (PBS) (Merck KgaA, Darmstadt, Germany) and centrifuged at 1300 rpm (ca. 190 × g) for 3 min at room temperature (Heraeus Megafuge 16, Thermo Fisher Scientific, Darmstadt, Germany). After centrifugation, the supernatant was disposed and the cell pellet was resuspended in culture medium. Cells were counted with a Neubauer hemocytometer (Paul Marienfeld GmbH & Co. KG, Lauda-Königshofen, Germany) and seeded in 24-well plates (Greiner Bio-One, Kremsmünster, Austria). IC50 values were determined by transferring 1.50 × 10^5 cells/mL per well into 24-well plates (Greiner Bio-One, Kremsmünster, Austria).
The culture medium was removed and the cells were washed with 500 µL of Hank’s balanced salt solution (HBSS) (Merck KGaA, Darmstadt, Germany), containing 1% bovine serum albumin (BSA) (Merck KGaA, Darmstadt, Germany). Afterwards, 200 µL of HBSS (1% BSA) were added to each well and equilibrated on ice (4 °C) for 15 min. 25 µL/well of either HBSS (1% BSA) (= control) or of solutions, containing the respective unlabeled ligand in increasing concentrations (10^-10 - 10^-4 M in HBSS) were added, followed by the addition of 25 µL of [Nle^14, [^125I]Tyr(3-I)^40]exendin-4 in HBSS (1% BSA) to each well. Experiments were carried out in triplicates for each concentration. The final concentrations of unlabeled ligand ranged from 10^-11 - 10^-5 M and the final radioligand concentration was 0.41 nM in all binding assays. The cells were incubated for two hours at 4 °C. Incubation was terminated by removal of the incubation medium. The cells were washed with 250 µL of HBSS (1% BSA) and the wash medium was combined with the respective supernatant. This fraction represents the amount of free radioligand. The cells were lysed by addition of 250 µL of 1 M aqueous NaOH. […]

- IC50 (human GLP-1 receptor [2]): 669 ± 242 nM
Compound: CCc1cc(OC)ccc1-c1ccc(C[C@H](NC(=O)[C@H](CC(=O)O)NC(=O)[C@H](CO)NC(=O)[C@@H](NC(=O)[C@](C)(Cc2ccccc2F)NC(=O)[C@@H](NC(=O)CNC(=O)[C@H](CCC(=O)O)NC(=O)C(C)(C)NC(=O)[C@@H](N)Cc2c[nH]cn2)[C@@H](C)O)[C@@H](C)O)C(=O)N[C@@H](CCc2ccccc2)C(N)=O)cc1 [Peptide 1, H-L-His-Aib-L-Glu-Gly-L-Thr-L-(α-Me)Phe(2-F)-L-Thr-L-Ser-L-Asp-L-(2’-Et, 4’-OMe)BIP-L-homoPhe-NH2, reference compound] (H-H[Aib]EGT[αMePhe(2-F)]TSD[Bip(2'-Et-4'-OMe)][hPhe]-NH2)
- EC50 (human GLP-1 receptor [1]): 0.031 nM
